Values after ≈ are worked out from the molar mass of the structure shown. Where two headings read alike, the source gives them in different places.
What was measured:
Escherichia coli TEM = test: MIC by agar dilution, in vitro activity test; format: cell-based; conditions: 20 h, read-out: Minimal Inhibitory Concentration (MIC)
Procedure: (§1) These MIC values were determined by agar dilution method: that is, two-fold dilutions of each of the test compounds were made and dispersed in a Mueller-Hinton Broth medium. Standard test strain which had the 10^6 CFU per ml was inoculated on the medium, and was incubated at 37° C. for 18 to 20 hours.

Salmonella typhimurium = test: MIC by agar dilution, in vitro activity test; format: cell-based; conditions: Salmonella enterica, 37° C., 18 to 20 hours, read-out: Minimal Inhibitory Concentration (MIC)
Procedure: as §1

[1] = system: Klebsiella aerogenes 1522E; test: MIC by agar dilution, in vitro activity test; format: cell-based; conditions: Klebsiella aerogenes 1522E; agar dilution, 37° C., 18 to 20 hours; read-out: Minimal Inhibitory Concentration (MIC)
Procedure: as §1

[2] = system: Enterobacter cloace 1321E; test: MIC by agar dilution, in vitro activity test; format: cell-based; conditions: 37° C., 18 to 20 hours, read-out: Minimal Inhibitory Concentration (MIC)
Procedure: as §1

[3] = system: Pseudomonas aeruginosa 9027; test: MIC by agar dilution, in vitro activity test; format: cell-based; conditions: 37° C., 18 to 20 hours, read-out: Minimal Inhibitory Concentration (MIC)
Procedure: as §1

[4] = system: Staphylococcus aureus 503; test: MIC by agar dilution, in vitro activity test; format: cell-based; conditions: 37° C., 18 to 20 hours, read-out: Minimal Inhibitory Concentration (MIC)
Procedure: as §1

[5] = system: Pseudomonas aeruginosa 1771M; test: MIC by agar dilution, in vitro activity test; format: cell-based; conditions: 20 h, read-out: Minimal Inhibitory Concentration (MIC)
Procedure: as §1

[6] = system: Streptococcus pyogenes 71A; test: MIC by agar dilution, in vitro activity test; format: cell-based; conditions: 37° C., 18 to 20 hours, read-out: Minimal Inhibitory Concentration (MIC)
Procedure: as §1

[7] = system: Pseudomonas aeruginosa 1592E; test: MIC by agar dilution, in vitro activity test; format: cell-based; conditions: 37° C., 18 to 20 hours, read-out: Minimal Inhibitory Concentration (MIC)
Procedure: as §1

[8] = system: Pseudomonas aeruginosa 9071; test: MIC by agar dilution, in vitro activity test; format: cell-based; conditions: 37° C., 18 to 20 hours, read-out: Minimal Inhibitory Concentration (MIC)
Procedure: as §1

[9] = system: Klebsiella aerogenes 1082E; test: MIC by agar dilution, in vitro activity test; format: cell-based; conditions: 37° C., 18 to 20 hours, read-out: Minimal Inhibitory Concentration (MIC)
Procedure: as §1

Escherichia coli 1507E = test: MIC by agar dilution, in vitro activity test; format: cell-based; conditions: Escherichia coli 1507E; agar dilution, 37° C., 18 to 20 hours; read-out: Minimal Inhibitory Concentration (MIC)
Procedure: as §1

[10] = system: Streptococcus faecium MD 8b; test: MIC by agar dilution, in vitro activity test; format: cell-based; conditions: Enterococcus faecium, MD8B, read-out: Minimal Inhibitory Concentration (MIC)
Procedure: as §1

[11] = system: Streptococcus pyogenes 77A; test: MIC by agar dilution, in vitro activity test; format: cell-based; conditions: 37° C., 18 to 20 hours, read-out: Minimal Inhibitory Concentration (MIC)
Procedure: as §1

Escherichia coli DC 0 = test: MIC by agar dilution, in vitro activity test; format: cell-based; conditions: DC0, 37° C., 18 to 20 hours, read-out: Minimal Inhibitory Concentration (MIC)
Procedure: as §1

Escherichia coli 078 = test: MIC by agar dilution, in vitro activity test; format: cell-based; conditions: 37° C., 18 to 20 hours, read-out: Minimal Inhibitory Concentration (MIC)
Procedure: as §1

Escherichia coli DC 2 = test: MIC by agar dilution, in vitro activity test; format: cell-based; conditions: DC2, 37° C., 18 to 20 hours, read-out: Minimal Inhibitory Concentration (MIC)
Procedure: as §1

Enterobacter cloace P99 = test: MIC by agar dilution, in vitro activity test; format: cell-based; conditions: P99, 20 h, read-out: Minimal Inhibitory Concentration (MIC)
Procedure: as §1

[12] = system: Staphylococcus aureus SG511; test: MIC by agar dilution, in vitro activity test; format: cell-based; conditions: 37° C., 18 to 20 hours, read-out: Minimal Inhibitory Concentration (MIC)
Procedure: as §1

[13] = system: Staphylococcus aureus 285; test: MIC by agar dilution, in vitro activity test; format: cell-based; conditions: 37° C., 18 to 20 hours, read-out: Minimal Inhibitory Concentration (MIC)
Procedure: as §1

Acute toxicity study = format: in vivo; conditions: mouse, in vivo
Procedure: In order to illustrate usefulness of the compounds of the present invention, acute toxicity test of the compounds synthesized in the above Examples were carried out. Each dose of the compounds dissolved in saline and buffer solution (PH=7.0) was administered by intravenous or subcutaneous injection. Mortalities of the animals was recorded seven days latter.
.asterisk-pseud. Mouse: Male ICR strain, 4 weeks

[14] = system: Staphylococcus aureus, Escherichia coli and Pseudomonas aeruginosa; test: MIC by agar dilution, comparison in words; format: cell-based; conditions: against Staphylococcus aureus, vs Cefotaxime
Procedure: as §1

[15] = system: Pseudomonas aeruginosa 1771; test: MIC by agar dilution, in vitro activity test; format: cell-based; conditions: 37° C., 18 to 20 hours, read-out: Minimal Inhibitory Concentration (MIC)
Procedure: These MIC values were determined by agar dilution method: that is, two-fold dilutions of each of the test compounds were made and dispersed in a Mueller-Hinton Broth medium.

[16] = iv, i.v, male ICR mouse, 4 weeks, mortality at seven days, read-out: LD50 i.v
[17] = iv, intravenous routes, read-out: acute toxicity in intravenous routes
[18] = sc, s.c, male ICR mouse, 4 weeks, mortality at seven days, read-out: LD50 s.c

CO/N=C(\C(=O)N[C@@H]1C(=O)N2C(C(=O)O)=C(COC(C)=O)CS[C@H]12)c1csc(N)n1 [CTX, Cefotaxime, reference compound]
MIC (Escherichia coli TEM): 0.05 µg/mL (≈ 0.11 µM) | MIC (Salmonella typhimurium): 0.1 µg/mL (≈ 0.22 µM) | MIC [1]: 0.1 µg/mL (≈ 0.22 µM) | MIC [2]: 0.05 µg/mL (≈ 0.11 µM) | MIC [3]: 25 µg/mL (≈ 54.9 µM) | MIC [4]: 3.1 µg/mL (≈ 6.81 µM) | MIC [5]: 0.4 µg/mL (≈ 0.878 µM) | MIC [6]: 0.012 µg/mL (≈ 0.0263 µM) | MIC [7]: 25 µg/mL (≈ 54.9 µM) | MIC [8]: 25 µg/mL (≈ 54.9 µM) | MIC [9]: 6.3 µg/mL (≈ 13.8 µM) | MIC (Escherichia coli 1507E): 0.025 µg/mL (≈ 0.0549 µM) | MIC ([10]; 20 h): > 100 µg/mL | MIC [11]: 0.012 µg/mL (≈ 0.0263 µM) | MIC (Escherichia coli DC 0): 0.012 µg/mL (≈ 0.0263 µM) | MIC (Escherichia coli 078): 0.025 µg/mL (≈ 0.0549 µM) | MIC (Escherichia coli DC 2): 0.05 µg/mL (≈ 0.11 µM) | MIC (Enterobacter cloace P99): > 100 µg/mL | MIC [12]: 1.6 µg/mL (≈ 3.51 µM) | MIC [13]: 1.6 µg/mL (≈ 3.51 µM)

CO/N=C(\C(=O)N[C@@H]1C(=O)N2C(C(=O)[O-])=C(/C=C/C[N+](C)(C)Cc3nc[nH]c3C)CS[C@H]12)c1csc(N)n1 [Example 2, 7β-[(Z)-2-(2-aminothiazol-4-yl)-2-methoxyiminoacetamido]-3-[(E)-3-[(5-methylimidazol-4-yl)-methyldimethylammonio]-1-propen-1-yl]3-cephem-4-carboxylate]
LD50 at 168 h (Acute toxicity study; [16]): > 2000 mg/kg | LD50 at 168 h (Acute toxicity study; [17]): > 2000 mg/kg | LD50 at 168 h (Acute toxicity study; [18]): > 3000 mg/kg

CC[N+](C)(CC=CC(N)=O)C/C=C/C1=C(C(=O)[O-])N2C(=O)[C@@H](NC(=O)/C(=N\OC)c3csc(N)n3)[C@H]2SC1 (stereo partly drawn) [Example 6, 7β-[(Z)-2-(2-aminothiazol-4-yl)-2-methoxyiminoacetamido]-3-[(E)-3-[(1-carbamoyl-1-propen-3-yl)-3-ethylmethylammonio]-1-propen-1-yl]3-cephem-4-carboxylate]
MICs compared with Cefotaxime [14]: superior to that of Cefotaxime | LD50 at 168 h (Acute toxicity study; [16]): > 3000 mg/kg | LD50 at 168 h (Acute toxicity study; [17]): > 2000 mg/kg | LD50 at 168 h (Acute toxicity study; [18]): > 3000 mg/kg | MIC [15]: 3.1 µg/mL (≈ 5.5 µM) | MIC (Escherichia coli TEM): 0.05 µg/mL (≈ 0.0887 µM) | MIC (Salmonella typhimurium): 0.1 µg/mL (≈ 0.177 µM) | MIC [1]: 0.1 µg/mL (≈ 0.177 µM) | MIC [2]: 0.025 µg/mL (≈ 0.0444 µM) | MIC [3]: 6.3 µg/mL (≈ 11.2 µM) | MIC [4]: 0.8 µg/mL (≈ 1.42 µM) | MIC [5]: 0.4 µg/mL (≈ 0.71 µM) | MIC [7]: 3.1 µg/mL (≈ 5.5 µM) | MIC [9]: 3.1 µg/mL (≈ 5.5 µM) | MIC (Escherichia coli 1507E): 0.05 µg/mL (≈ 0.0887 µM) | MIC ([10]; 20 h): > 100 µg/mL | MIC [11]: 0.012 µg/mL (≈ 0.0213 µM) | MIC (Escherichia coli DC 0): < 0.006 µg/mL | MIC (Escherichia coli 078): 0.12 µg/mL (≈ 0.213 µM) | MIC (Escherichia coli DC 2): 0.05 µg/mL (≈ 0.0887 µM) | MIC (Enterobacter cloace P99): 1.6 µg/mL (≈ 2.84 µM) | MIC [12]: 0.8 µg/mL (≈ 1.42 µM) | MIC [13]: 0.4 µg/mL (≈ 0.71 µM)

CO/N=C(\C(=O)N[C@@H]1C(=O)N2C(C(=O)[O-])=C(C[n+]3cccc4c3CCC4)CS[C@H]12)c1csc(N)n1 [CPR, Cefpirome, reference compound]
MIC [15]: 3.1 µg/mL (≈ 6.02 µM) | MIC (Escherichia coli TEM): 0.05 µg/mL (≈ 0.0972 µM) | MIC (Salmonella typhimurium): 0.1 µg/mL (≈ 0.194 µM) | MIC [1]: 0.1 µg/mL (≈ 0.194 µM) | MIC [2]: 0.025 µg/mL (≈ 0.0486 µM) | MIC [3]: 6.3 µg/mL (≈ 12.2 µM) | MIC [4]: 0.8 µg/mL (≈ 1.55 µM) | MIC [5]: 0.8 µg/mL (≈ 1.55 µM) | MIC [6]: 0.012 µg/mL (≈ 0.0233 µM) | MIC [7]: 3.1 µg/mL (≈ 6.02 µM) | MIC [8]: 6.3 µg/mL (≈ 12.2 µM) | MIC [9]: 6.3 µg/mL (≈ 12.2 µM) | MIC (Escherichia coli 1507E): 0.025 µg/mL (≈ 0.0486 µM) | MIC ([10]; 20 h): 100 µg/mL (≈ 194 µM) | MIC [11]: 0.012 µg/mL (≈ 0.0233 µM) | MIC (Escherichia coli DC 0): 0.012 µg/mL (≈ 0.0233 µM) | MIC (Escherichia coli 078): 0.025 µg/mL (≈ 0.0486 µM) | MIC (Escherichia coli DC 2): 0.1 µg/mL (≈ 0.194 µM) | MIC (Enterobacter cloace P99): 3.1 µg/mL (≈ 6.02 µM) | MIC [12]: 0.8 µg/mL (≈ 1.55 µM) | MIC [13]: 0.4 µg/mL (≈ 0.777 µM)

CO/N=C(\C(=O)N[C@@H]1C(=O)N2C(C(=O)[O-])=C(/C=C/C[N+](C)(C)Cc3scnc3C)CS[C@H]12)c1csc(N)n1 [Example 1, 7β-[(Z)-2-(2-aminothiazol-4-yl)-2-methoxyiminoacetamido]-3-[(E)-3-[(4-methylthiazol-5-yl)-methyldimethylammonio]-1-propen-1-yl]3-cephem-4-carboxylate]
MICs compared with Cefotaxime [14]: superior to that of Cefotaxime | LD50 at 168 h (Acute toxicity study; [16]): > 3000 mg/kg | LD50 at 168 h (Acute toxicity study; [17]): > 2000 mg/kg | LD50 at 168 h (Acute toxicity study; [18]): > 4000 mg/kg | LD50 at 168 h (Acute toxicity study; sc, subcutaneous routes, read-out: acute toxicity in subcutaneous routes): > 3000 mg/kg | MIC [15]: 6.3 µg/mL (≈ 10.9 µM) | MIC (Escherichia coli TEM): 0.05 µg/mL (≈ 0.0865 µM) | MIC (Salmonella typhimurium): 0.1 µg/mL (≈ 0.173 µM) | MIC [1]: 0.05 µg/mL (≈ 0.0865 µM) | MIC [2]: 0.012 µg/mL (≈ 0.0208 µM) | MIC [3]: 12.5 µg/mL (≈ 21.6 µM) | MIC [4]: 0.8 µg/mL (≈ 1.38 µM) | MIC [5]: 0.4 µg/mL (≈ 0.692 µM) | MIC [7]: 3.1 µg/mL (≈ 5.37 µM) | MIC [9]: 6.3 µg/mL (≈ 10.9 µM) | MIC (Escherichia coli 1507E): 0.025 µg/mL (≈ 0.0433 µM) | MIC ([10]; Streptococcus faecium MD 8b, agar dilution, 37° C., 18 to 20 hours): 50 µg/mL (≈ 86.5 µM) | MIC [11]: 0.006 µg/mL (≈ 0.0104 µM) | MIC (Escherichia coli DC 0): 0.025 µg/mL (≈ 0.0433 µM) | MIC (Escherichia coli 078): < 0.006 µg/mL | MIC (Escherichia coli DC 2): 0.05 µg/mL (≈ 0.0865 µM) | MIC (Enterobacter cloace P99): 0.4 µg/mL (≈ 0.692 µM) | MIC [12]: 0.4 µg/mL (≈ 0.692 µM) | MIC [13]: 0.4 µg/mL (≈ 0.692 µM)

— patent US6063778A, “Cephalosporin derivatives and processes for the preparation thereof” (Il-Dong Pharm. Co., Ltd., priority 1995, dated 2000)
